Read-outs that look alike come from different tables or passages of the source.
How the values were obtained:
[1] = target: T1, human cytoplasmic domain of IGF-1R (Homo sapiens, UniProt P08069); assay: Kinase IGF-1R test: inhibition of autophosphorylation of the enzyme (HTRF); assay type: biochemical; settings: ATP 120 μM
T1 construct: The human cytoplasmic domain of IGF-1R was cloned by fusion with glutathione S-transferase (GST); made in house; host or cells: SF21 insect cells (baculovirus, pFastBac-GST)
Method: A) Experimental Protocol for the Kinase IGF-1R Test:
The inhibitory activity of the compounds on IGF1R is determined by measuring the inhibition of autophosphorylation of the enzyme using a time-resolved fluorescence test (HTRF). The human cytoplasmic domain of IGF-1R was cloned by fusion with glutathione S-transferase (GST) in the baculovirus expression vector pFastBac-GST. The protein is expressed in the SF21 cells and purified to about 80% homogeneity. For the enzymatic test, the test compound at 10 mM dissolved in DMSO is diluted in ⅓ steps in a 50 mM Hepes, pH 7.5, 5 mM MnCl2, 50 mM NaCl, 3% Glycerol, 0.025% Tween 20 buffer. To measure the inhibition, the successive dilutions of the compound are preincubated for 30 minutes and 90 minutes in the presence of 5 nM of enzyme, the final DMSO concentration not exceeding 1%. The enzymatic reaction is initiated to have a final ATP concentration of 120 μM, and is stopped after 5 minutes by addition of 100 mM Hepes, pH 7.0 buffer containing 0.4 M of potassium fluoride, 133 mM EDTA, 0.1% BSA, the XL665-labelled antibody anti-GST and the anti-phosphotyrosine antibody conjugated to europium cryptate Eu—K (Cis-Bio Int.). The characteristics of the two fluorophores, XL-665 and Eu—K, are available in G. Mathis et al., Anticancer Research, 1997, 17, pages 3011-3014. The energy transfer between the excited europium cryptate to the acceptor XL665 is proportional to the degree of autophosphorylation of IGF-1R. The specific long-lasting signal of XL-665 is measured in a GENios Pro TECAN plate counter. The inhibition of autophosphorylation of IGF-1R at time 30 minutes and 90 minutes with the test compounds of the invention is calculated relative to a 1% in DMSO control, whose activity is measured in the absence of compound. The curve representing the percentage of inhibition as a function of the log of the concentration is established to determine the concentration corresponding to 50% inhibition (IC50),

MEF-IGF1R cells = assay: Proliferation/viability of MEF-IGF1R (Thymidine [14C] incorporation); assay type: cell-based; settings: rhIGF1 100 ng/mL, incubation 72 hours, read-out: Test C IC50
Method: C) Measurement of the Proliferation/Viability of MEF-IGF1R
Cell culture: the MEF-IGF1R cells (stable clone of cells transfected with the receptor hIGF-1R) are cultured at 37° C. under 5% CO2 in EMEM medium containing 10% FCS.
Test procedure: the cells are seeded at 5000 cells per well in 96-well Cytostar plates (Amersham) with 0.2 mL of EMEM culture medium at 37° C. for 18 hours. The cells are then washed twice with EMEM medium and left to culture without serum for 24 hours. The compounds are then added at various concentrations in the presence of rhIGF1 (100 ng/mL) and 0.1 μCi of Thymidine [^14C] (specific activity ˜50 mCi/mmol) to give 0.2 mL of volume per well. After incubation for 72 hours in the presence of the compound, at 37° C. under 5% CO2, the incorporation of Thymidine [^14C] is measured by counting the radioactivity on a Microbeta trilux counter (Perkin-Elmer). The IC50 is determined from 10 increasing concentrations of the compound.
(§1) (i) The tests are performed in duplicate and the mean of the two tests is calculated.
(§2) (ii) The value of the signal of the maximum response is calculated from the positive control: cells stimulated with IGF1 without compound.
(§3) (iii) Value of the signal of the minimum response is calculated from the negative control: cells not stimulated with IGF1 without compound.
(§4) (iv) By using these values as maximum (100%) and minimum (0%), respectively, the data were normalized so as to give a percentage of the maximum response.
(§5) (v) A curve of dose response is plotted and the IC50 (the concentration of which the compound induces a 50% decrease in the signal) of the compound is calculated by non-linear regression analysis.

IGF-1R in MCF7 cells = IGF-1R in MCF7 cells (Homo sapiens, UniProt P08069); assay: Autophosphorylation of IGF-1R in MCF7 cells after stimulation with IGF-1 (ELISA); assay type: cell-based; set-up: endogenous in cells; host or cells: MCF-7 cells; settings: MCF-7 cells, compound added one hour before stimulation with IGF1; read-out: Test B IC50
Method: B) Measurement of the Autophosphorylation of IGF-1R in MCF7 Cells after Stimulation with IGF-1
Cell Culturing and Execution of the Test:
The autophosphorylation of IGF1R in the IGF1-induced cells is evaluated by means of an ELISA technique (Enzyme Linked ImmunoSorbent Assay). The MCF-7 are seeded at 60 000 cells per well in 6-well plates and incubated at 37° C., 5% CO2 in medium containing 10% serum. After one night in 10% serum, the cells are deprived of serum for 24 hours. The compounds are added to the medium one hour before stimulation with IGF1. After 10 minutes of stimulation with IGF1, the cells are lysed with a buffer (Hepes 50 mM pH 7.6, Triton X100 1%, orthovanadate 2 mM, protease inhibitor cocktail). The cell lysates are incubated on a 96-well plate precoated with an anti-IGF1R antibody, followed by incubation with an anti-phosphotyrosine antibody coupled to the enzyme peroxidase. The level of peroxidase activity (measured by OD with a luminescent substrate) reflects the phosphorylation status of the receptor.
as §1, §2, §3, §4, §5

[2] = preincubation 30 minutes with 5 nM enzyme, read-out: Test A 30′ IC50
[3] = preincubation 90 minutes with 5 nM enzyme, read-out: Test A 90′ IC50

IGF-1R in MCF7 cells, sequence (P08069 31-1367): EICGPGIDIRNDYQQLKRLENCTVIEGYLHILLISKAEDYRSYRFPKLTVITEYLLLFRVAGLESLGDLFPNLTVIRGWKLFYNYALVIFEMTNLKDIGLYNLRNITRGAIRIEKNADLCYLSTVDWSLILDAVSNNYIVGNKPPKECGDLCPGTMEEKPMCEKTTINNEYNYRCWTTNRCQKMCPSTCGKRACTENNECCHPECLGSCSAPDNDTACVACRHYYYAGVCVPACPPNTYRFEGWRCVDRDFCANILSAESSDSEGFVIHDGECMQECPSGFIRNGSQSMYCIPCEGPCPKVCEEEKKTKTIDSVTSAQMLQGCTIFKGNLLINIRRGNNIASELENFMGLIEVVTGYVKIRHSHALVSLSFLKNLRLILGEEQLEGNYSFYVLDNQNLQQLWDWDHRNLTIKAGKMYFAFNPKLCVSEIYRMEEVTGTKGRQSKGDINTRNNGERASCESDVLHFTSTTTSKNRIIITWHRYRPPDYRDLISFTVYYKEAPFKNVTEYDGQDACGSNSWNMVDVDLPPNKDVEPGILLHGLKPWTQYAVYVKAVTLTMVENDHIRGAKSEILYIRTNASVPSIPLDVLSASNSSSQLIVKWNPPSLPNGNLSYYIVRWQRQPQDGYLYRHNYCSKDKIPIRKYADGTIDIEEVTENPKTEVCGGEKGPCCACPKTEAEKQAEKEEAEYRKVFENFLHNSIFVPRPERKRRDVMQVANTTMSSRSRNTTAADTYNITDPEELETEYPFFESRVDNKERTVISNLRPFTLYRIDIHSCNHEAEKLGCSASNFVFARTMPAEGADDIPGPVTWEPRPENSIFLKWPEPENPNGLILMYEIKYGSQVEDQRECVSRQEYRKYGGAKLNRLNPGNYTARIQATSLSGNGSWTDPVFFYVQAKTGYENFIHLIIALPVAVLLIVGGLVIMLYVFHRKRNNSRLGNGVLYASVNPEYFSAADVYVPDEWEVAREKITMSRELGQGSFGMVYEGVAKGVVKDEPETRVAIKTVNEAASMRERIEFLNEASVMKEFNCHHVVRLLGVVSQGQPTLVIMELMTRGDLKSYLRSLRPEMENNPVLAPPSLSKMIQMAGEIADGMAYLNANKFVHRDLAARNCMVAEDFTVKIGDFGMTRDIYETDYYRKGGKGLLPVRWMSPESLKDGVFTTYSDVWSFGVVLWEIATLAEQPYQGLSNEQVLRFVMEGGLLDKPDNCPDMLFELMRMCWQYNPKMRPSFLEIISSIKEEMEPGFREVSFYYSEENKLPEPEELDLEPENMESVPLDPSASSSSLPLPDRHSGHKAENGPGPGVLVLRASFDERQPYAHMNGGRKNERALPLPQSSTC
T1 sequence (P08069 960-1367 limits assumed): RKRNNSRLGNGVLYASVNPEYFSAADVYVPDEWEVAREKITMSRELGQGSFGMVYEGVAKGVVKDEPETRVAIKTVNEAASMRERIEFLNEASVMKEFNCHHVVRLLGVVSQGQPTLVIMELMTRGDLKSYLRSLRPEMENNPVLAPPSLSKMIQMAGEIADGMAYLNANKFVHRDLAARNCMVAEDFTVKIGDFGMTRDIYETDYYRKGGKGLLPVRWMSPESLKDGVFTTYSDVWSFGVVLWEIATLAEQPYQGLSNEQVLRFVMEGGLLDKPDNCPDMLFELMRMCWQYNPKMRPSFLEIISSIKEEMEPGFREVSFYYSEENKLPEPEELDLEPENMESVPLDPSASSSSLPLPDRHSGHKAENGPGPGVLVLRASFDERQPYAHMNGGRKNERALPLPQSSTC

Q: Which results are given for “1-{4-[(5,5-dimethyl-2,4-dioxo-3-{4-[(trifluoro-methyl)thio]phenyl}imidazolidin-1-yl)methyl]pyridin-2-yl}-3-(2-morpholin-4-ylethyl)urea [Example 33]”?
A: IC50 [1, 2]: 10 to 100 nM; IC50 [1, 3]: 10 to 100 nM; IC50 (MEF-IGF1R cells): > 100 nM

Q: Which IC50 [1, 2] does the source give for “1-{4-[(5,5-dimethyl-2,4-dioxo-3-{4-[(trifluoro-methyl)thio]phenyl}imidazolidin-1-yl)methyl]pyridin-2-yl}-3-[2-(4-methylpiperazin-1-yl)ethyl]urea [Example 32]” here?
A: 10 to 100 nM

Q: And the IC50 [1, 3]?
A: 10 to 100 nM

Q: And the IC50 (MEF-IGF1R cells)?
A: > 100 nM

Q: With `CC1(C)C(=O)N(c2ccc(SC(F)(F)F)cc2)C(=O)N1Cc1ccnc(NC(=O)NC2CC(CO)C2)c1` (mixture of isomers) [Example 40B Stage a), 1-{4-[(5,5-dimethyl-2,4-dioxo-3-{4-[(trifluoro-methyl)thio]phenyl}imidazolidin-1-yl)methyl]pyridin-2-yl}-3-[3-(hydroxymethyl)cyclobutyl]urea] as the compound, how does the IC50 [1, 2] read?
A: 10 to 100 nM

Q: What about the IC50 [1, 3] of the same compound?
A: < 10 nM

Q: For `CC1(C)C(=O)N(c2ccc(SC(F)(F)F)cc2)C(=O)N1Cc1ccnc(Nc2cc(Cl)ccc2Cl)c1` [Example 1, 1-({2-[(2,5-dichlorophenyl)amino]pyridin-4-yl}-methyl)-5,5-dimethyl-3-{4-[(trifluoromethyl)thio]phenyl}imidazolidine-2,4-dione], which IC50 [1, 2] is on record?
A: > 100 nM

Q: What about the IC50 [1, 3] of the same compound?
A: > 100 nM

Q: What about the IC50 (MEF-IGF1R cells) of the same compound?
A: 10 to 100 nM

Q: What about the IC50 (IGF-1R in MCF7 cells) of the same compound?
A: > 100 nM

Q: With `CC1(C)C(=O)N(c2ccc(SC(F)(F)F)cc2)C(=O)N1Cc1ccnc(NC(=O)N2CCCCC2)c1` [Example 2, N-{4-[(5,5-dimethyl-2,4-dioxo-3-{4-[(trifluoro-methyl)thio]phenyl}imidazolidin-1-yl)methyl]pyridin-2-yl}piperidine-1-carboxamide] as the compound, how does the IC50 [1, 2] read?
A: 10 to 100 nM

Q: What about the IC50 [1, 3] of the same compound?
A: 10 to 100 nM

Q: What about the IC50 (MEF-IGF1R cells) of the same compound?
A: 10 to 100 nM

Q: What about the IC50 (IGF-1R in MCF7 cells) of the same compound?
A: < 10 nM

Q: With `CC1(C)C(=O)N(c2ccc(SC(F)(F)F)cc2)C(=O)N1Cc1ccnc(NC(=O)c2ccc(Cl)c(Cl)c2)c1` [Example 3, 3,4-dichloro-N-{4-[(5,5-dimethyl-2,4-dioxo-3-{4-[(trifluoromethyl)thio]phenyl}imidazolidin-1-yl)methyl]pyridin-2-yl}benzamide] as the compound, how does the IC50 [1, 2] read?
A: > 100 nM

Q: And the IC50 [1, 3]?
A: > 100 nM

Q: What about the IC50 (MEF-IGF1R cells) of the same compound?
A: 10 to 100 nM

Q: What about the IC50 (IGF-1R in MCF7 cells) of the same compound?
A: > 100 nM

Q: Which IC50 [1, 2] does the source give for `CNC(=O)Nc1cc(CN2C(=O)N(c3ccc(S(=O)(=O)C(F)(F)F)cc3)C(=O)C2(C)C)ccn1` [Example 4, 1-{4-[(5,5-dimethyl-2,4-dioxo-3-{4-[(trifluoro-methyl)sulfonyl]phenyl}imidazolidin-1-yl)methyl]pyridin-2-yl}-3-methylurea] here?
A: > 100 nM

Q: What about the IC50 [1, 3] of the same compound?
A: 10 to 100 nM

Q: What about the IC50 (MEF-IGF1R cells) of the same compound?
A: 10 to 100 nM

Q: And the IC50 (IGF-1R in MCF7 cells)?
A: < 10 nM

Q: How did the IC50 [1, 2] turn out when `CC1(C)C(=O)N(c2ccc(SC(F)(F)F)cc2)C(=O)N1Cc1ccnc(Nc2cc(F)ccc2F)c1` [Example 5, 1-({2-[(2,5-difluorophenyl)amino]pyridin-4-yl}-methyl)-5,5-dimethyl-3-{4-[(trifluoromethyl)thio]phenyl}imidazolidine-2,4-dione] was run?
A: 10 to 100 nM

Q: And the IC50 (MEF-IGF1R cells)?
A: 10 to 100 nM

Q: And the IC50 (IGF-1R in MCF7 cells)?
A: > 100 nM

Q: `CN(C)C(=O)Nc1nccc(CN2C(=O)N(c3ccc(SC(F)(F)F)cc3)C(=O)C2(C)C)n1` [Example 10, 3-{4-[(5,5-dimethyl-2,4-dioxo-3-{4-[(trifluoro-methyl)thio]phenyl}imidazolidin-1-yl)methyl]pyrimidin-2-yl}-1,1-dimethylurea] was tested. Which IC50 [1, 2] did it give?
A: > 100 nM

Q: And the IC50 [1, 3]?
A: > 100 nM

Q: And the IC50 (MEF-IGF1R cells)?
A: > 100 nM

Q: For `CN(C)C(=O)Nc1nccc(CN2C(=O)N(c3ccc(S(=O)(=O)C(F)(F)F)cc3)C(=O)C2(C)C)n1` [Example 12, 3-{4-[(5,5-dimethyl-2,4-dioxo-3-{4-[(trifluoro-methyl)sulfonyl]phenyl}imidazolidin-1-yl)methyl]pyrimidin-2-yl}-1,1-dimethylurea], which IC50 [1, 2] is on record?
A: > 100 nM

Q: And the IC50 [1, 3]?
A: > 100 nM

Q: What about the IC50 (MEF-IGF1R cells) of the same compound?
A: > 100 nM

Q: What does the source list for `CC1(C)C(=O)N(c2ccc(SC(F)(F)F)cc2)C(=O)N1Cc1ccnc(Nc2cncc(F)c2)c1` [Example 17, 1-({2-[(5-fluoropyridin-3-yl)amino]pyridin-4-yl}-methyl)-5,5-dimethyl-3-{4-[(trifluoromethyl)thio]phenyl}imidazolidine-2,4-dione]?
A: IC50 [1, 2]: > 100 nM; IC50 [1, 3]: 10 to 100 nM; IC50 (MEF-IGF1R cells): > 100 nM

Q: How did the IC50 [1, 2] turn out when `CC1(C)C(=O)N(c2ccc(SC(F)(F)F)cc2)C(=O)N1Cc1ccnc(NC(=O)NC2CCCCC2)c1` [Example 25, 1-cyclohexyl-3-{4-[(5,5-dimethyl-2,4-dioxo-3-{4-[(trifluoromethyl)thio]phenyl}imidazolidin-1-yl)methyl]pyridin-2-yl}urea] was run?
A: > 100 nM

Q: What about the IC50 [1, 3] of the same compound?
A: 10 to 100 nM

Q: And the IC50 (MEF-IGF1R cells)?
A: > 100 nM

Q: With `CC1(C)C(=O)N(c2ccc(SC(F)(F)F)cc2)C(=O)N1Cc1ccnc(NC(=O)NCCN2CCCCC2)c1` [Example 31, 1-{4-[(5,5-dimethyl-2,4-dioxo-3-{4-[(trifluoro-methyl)thio]phenyl}imidazolidin-1-yl)methyl]pyridin-2-yl}-3-(2-piperidin-1-ylethyl)urea] as the compound, how does the IC50 [1, 2] read?
A: > 100 nM

Q: What about the IC50 [1, 3] of the same compound?
A: 10 to 100 nM

Q: What about the IC50 (MEF-IGF1R cells) of the same compound?
A: > 100 nM

Q: How did the IC50 [1, 2] turn out when `CCCCNC(=O)Nc1cc(CN2C(=O)N(c3ccc(SC(F)(F)F)cc3)C(=O)C2(C)C)ccn1` [Example 37, 1-butyl-3-{4-[(5,5-dimethyl-2,4-dioxo-3-{4-[(tri-fluoromethyl)thio]phenyl}imidazolidin-1-yl)methyl]pyridin-2-yl}urea] was run?
A: > 100 nM

Q: And the IC50 [1, 3]?
A: 10 to 100 nM

Q: What about the IC50 (MEF-IGF1R cells) of the same compound?
A: 10 to 100 nM

Q: What does the source list for `CN(C)CCCNC(=O)Nc1cc(CN2C(=O)N(c3ccc(SC(F)(F)F)cc3)C(=O)C2(C)C)ccn1` [Example 38, 1-[3-(dimethylamino)propyl]-3-{4-[(5,5-dimethyl-2,4-dioxo-3-{4-[(trifluoromethyl)thio]phenyl}imidazolidin-1-yl)methyl]pyridin-2-yl}urea]?
A: IC50 [1, 2]: 10 to 100 nM; IC50 [1, 3]: 10 to 100 nM; IC50 (MEF-IGF1R cells): > 100 nM

Q: Which results are given for `CN(C)CCCCNC(=O)Nc1cc(CN2C(=O)N(c3ccc(SC(F)(F)F)cc3)C(=O)C2(C)C)ccn1` [Example 40, 1-[4-(dimethylamino)butyl]-3-{4-[(5,5-dimethyl-2,4-dioxo-3-{4-[(trifluoromethyl)thio]phenyl}imidazolidin-1-yl)-methyl]pyridin-2-yl}urea]?
A: IC50 [1, 2]: 10 to 100 nM; IC50 [1, 3]: < 10 nM; IC50 (MEF-IGF1R cells): > 100 nM

Reference: patent US20090082329A1 (AVENTIS PHARMA S.A., priority 2006, published 2009)
